Source: patent publication US8633245B2, “PAI-1 inhibitor” (Institute of Medicinal Molecular Design, Inc., priority 2008, dated 2014)

Target: T1, recombinant human PAI-1 (Homo sapiens, UniProt P05121)
T1 construct: purchased Molecular Innovations, Inc
Assay: Test Example 1: human PAI-1 inhibitory activity (tPA fluorogenic substrate, pH 7.5 Tris buffer)
Assay type: biochemical
Conditions: Tris buffer
Description: 50 mM Tris, 150 mM NaCl, 10 μg/ml BSA, 0.01% Tween80 (SIGMA-ALDRICH Corporation)

T1 sequence (P05121 24-402): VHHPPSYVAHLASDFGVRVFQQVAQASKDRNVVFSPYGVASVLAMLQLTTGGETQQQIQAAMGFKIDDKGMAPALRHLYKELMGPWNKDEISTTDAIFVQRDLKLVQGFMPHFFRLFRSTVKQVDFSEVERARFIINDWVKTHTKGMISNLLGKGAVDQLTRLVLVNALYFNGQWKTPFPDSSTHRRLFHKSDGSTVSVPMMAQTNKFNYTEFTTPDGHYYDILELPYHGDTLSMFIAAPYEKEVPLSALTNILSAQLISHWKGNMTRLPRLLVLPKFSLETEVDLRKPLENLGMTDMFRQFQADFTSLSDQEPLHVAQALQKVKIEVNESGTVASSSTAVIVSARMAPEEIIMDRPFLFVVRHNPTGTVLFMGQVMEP

Inhibition Rate of PAI-1 Activity (%) (Compound Concentration 5 μM)	Inhibition Rate of PAI-1 Activity (%) (Compound Concentration 10 μM)	Inhibition Rate of PAI-1 Activity (%) (Compound Concentration 25 μM)	SMILES
61	86	95	CCCOc1ccc(-c2ccc(OC(F)(F)F)cc2)cc1N(CCCCc1ccccc1)C(=O)C(=O)O [Compound 236]
21	48	97	Cc1ccc(COc2ccc(-c3ccc(OC(F)(F)F)cc3)cc2CCC(=O)O)cc1 [Compound 61]
	3	20	O=C(O)C(=O)N(Cc1ccccc1)c1ccc(Oc2ccc(OC(F)(F)F)cc2)cc1 [Compound 154]
	32	82	CC(C)(C)c1ccc(CN(C(=O)C(=O)O)c2ccc(Oc3ccc(OC(F)(F)F)cc3)cc2)cc1 [Compound 132]
79	96		Cc1cc(N(C)C)c(-c2ccc(OC(F)(F)F)cc2)cc1N(CCCCc1ccccc1)C(=O)C(=O)O [Compound 246]
34	59	90	O=C(O)COc1cc(-c2ccc(OC(F)(F)F)cc2)ccc1OCCCCc1ccccc1 [Compound 115]
	5	61	Cc1ccc(-c2ccccc2)cc1N(Cc1ccc(C(C)(C)C)cc1)C(=O)C(=O)O [Compound 137]
43	83	91	Cc1c(-c2ccc(OC(F)(F)F)cc2)cccc1N(Cc1ccc(C(C)(C)C)cc1)C(=O)C(=O)O [Compound 177]
50	80	98	CC(C)(C)c1ccc(-c2ccc(N(Cc3ccc(C(F)(F)F)cc3)C(=O)C(=O)O)cc2)cc1 [Compound 205]
58	85	>99	CC(C)(C)c1ccc(-c2ccc(N(Cc3ccc(Cl)cc3)C(=O)C(=O)O)cc2)cc1 [Compound 204]
24	53	99	CC(C)(C)c1ccc(COc2ccc(-c3ccc(F)cc3)cc2CCC(=O)O)cc1 [Compound 34]
47	77	96	O=C(O)CCc1cc(-c2ccc(OC(F)(F)F)cc2)ccc1OCCCCCc1ccccc1 [Compound 104]
14	34	93	COc1ccc(-c2ccc(OCc3ccc(C(C)(C)C)cc3)c(CCC(=O)O)c2)cc1 [Compound 38]
	5	52	Cc1ccc(-c2ccc(N(Cc3ccc(C(C)(C)C)cc3)C(=O)C(=O)O)cc2)cc1 [Compound 141]
66	94	87	CC(C)(C)c1ccc(CN(C(=O)C(=O)O)c2cc(Oc3ccc(OC(F)(F)F)cc3)cc(C(F)(F)F)c2)cc1 [Compound 175]
18	31		O=C(O)Cc1cc(-c2ccc(OC(F)(F)F)cc2)ccc1OCc1ccccc1 [Compound 1]
21	49	89	CC(C)(C)c1ccc(COc2ccc(-c3ccccc3)cc2/C=C/C(=O)O)cc1 [Compound 31]
38	73	94	CC(C)(C)c1ccc(N(C(=O)C(=O)O)c2cccc(Oc3ccc(OC(F)(F)F)cc3)c2)cc1 [Compound 170]
51	86	89	CC(c1ccc(C(C)(C)C)cc1)N(C(=O)C(=O)O)c1ccc(-c2ccc(OC(F)(F)F)cc2)cc1 (centres unmarked) [Compound 220]
93	97		CCCCCCOc1ccc(-c2ccc(OC(F)(F)F)cc2)cc1N(CCCCc1ccccc1)C(=O)C(=O)O [Compound 245]
44	79	84	CC(C)(C)c1ccc(CN(C(=O)C(=O)O)c2ccc(-c3ccc(OC(F)(F)F)cc3)c(C(F)(F)F)c2)cc1 [Compound 166]
15	31		Cc1cccc(CN(C(=O)C(=O)O)c2ccc(-c3ccc(OC(F)(F)F)cc3)cc2)c1 [Compound 125]

Inhibition Rate of PAI-1 Activity (%) (Compound Concentration 5 μM)	Inhibition Rate of PAI-1 Activity (%) (Compound Concentration 10 μM)	Inhibition Rate of PAI-1 Activity (%) (Compound Concentration 25 μM)	SMILES
28	77	96	CC(C)(C)c1ccc(COc2ccc(Oc3ccc(OC(F)(F)F)cc3)cc2C=CC(=O)O)cc1 [Compound 95]
20	50	93	CC(C)(C)c1ccc(-c2ccc(OCc3ccccc3)c(CCC(=O)O)c2)cc1 [Compound 48]
24	53	82	O=C(O)/C=C/c1cc(-c2ccc(OC(F)(F)F)cc2)ccc1OCc1cccc(C(F)(F)F)c1 [Compound 57]
23	47	94	O=C(O)C=Cc1cc(-c2ccc(OC(F)(F)F)cc2)ccc1Oc1ccc(OC(F)(F)F)cc1 [Compound 15]
3	9	31	CCCCCN(C(=O)C(=O)O)c1ccc(-c2ccc(OC(F)(F)F)cc2)cc1 [Compound 254]
31	66	99	CC(C)(C)c1ccc(Oc2ccc(Oc3ccc(OC(F)(F)F)cc3)cc2C=CC(=O)O)cc1 [Compound 99]
79	90		CCC(CC)Oc1ccc(N(Cc2ccc(C(C)(C)C)cc2)C(=O)C(=O)O)c(-c2ccc(OC(F)(F)F)cc2)c1 [Compound 207]
96	97	93	CC(C)(C)c1ccc(COc2ccc(-c3ccc(OC(F)(F)F)cc3)cc2/C=C/C(=O)O)cc1 [Compound 25]
26	59	98	COc1cc(-c2ccc(OC(F)(F)F)cc2)cc(CCC(=O)O)c1OCc1ccc(C(C)(C)C)cc1 [Compound 82]
42	73	>99	O=C(O)CCc1cc(-c2ccc(OC(F)(F)F)cc2)ccc1OCCCc1ccccc1 [Compound 101]
52	82	96	CCCOc1ccc(N(CCCc2ccccc2)C(=O)C(=O)O)c(-c2ccc(OC(F)(F)F)cc2)c1 [Compound 232]
33	73	90	Cc1cc(-c2ccc(OC(F)(F)F)cc2)ccc1N(Cc1ccc(C(C)(C)C)cc1)C(=O)C(=O)O [Compound 146]
92	94		CC(C)(C)c1ccc(Oc2ccc(-c3ccc(OC(F)(F)F)cc3)cc2C=CC(=O)O)cc1 [Compound 12]
42	72	93	CC(C)(C)c1ccc(COc2ccc(-c3ccccc3OC(F)(F)F)cc2/C=C/C(=O)O)cc1 [Compound 65]
3	22	76	O=C(O)C(=O)N(Cc1ccc(Cl)cc1Cl)c1ccc(-c2ccc(OC(F)(F)F)cc2)cc1 [Compound 144]
37	71	98	CC(C)(C)c1ccc(COc2cc(CCC(=O)O)cc(Oc3ccc(OC(F)(F)F)cc3)c2)cc1 [Compound 410]
	1	22	Cc1ccc(CN(C(=O)C(=O)O)c2ccc(-c3ccc(OC(F)(F)F)cc3)cc2)cc1 [Compound 143]
30	67	96	CC(C)(C)c1ccc(COc2c(Cl)cc(-c3ccc(OC(F)(F)F)cc3)cc2C=CC(=O)O)cc1 [Compound 91]
26	61	>99	CC(C)(C)c1ccc(N(C(=O)C(=O)O)c2cccc(-c3ccc(OC(F)(F)F)cc3)c2)cc1 [Compound 158]
	6	67	CC(C)(C)c1ccc(CN(C(=O)C(=O)O)c2ccc(-c3ccc(Cl)cc3)cc2)cc1 [Compound 135]
14	26	68	CSc1ccc(CN(C(=O)C(=O)O)c2ccc(-c3ccc(OC(F)(F)F)cc3)cc2)cc1 [Compound 160]
27	64	96	CC(C)(C)c1ccc(N(C(=O)C(=O)O)c2ccc(Oc3ccc(OC(F)(F)F)cc3)cc2)cc1 [Compound 165]

SMILES	Inhibition Rate of PAI-1 Activity (%) (Compound Concentration 5 μM)	Inhibition Rate of PAI-1 Activity (%) (Compound Concentration 10 μM)	Inhibition Rate of PAI-1 Activity (%) (Compound Concentration 25 μM)
CC(C)(C)c1ccc(CN(C(=O)C(=O)O)c2ccc(-c3ccc(OC(F)(F)F)cc3)cc2)cc1 [Compound 133]	80	92	
